According to patent US20240109917A1 (ACTELION PHARMACEUTICALS LTD, priority 2020, published 2024):

What was measured:
[1] = molecular target: His6-TEV-PDGFRβ (557-1016) (Homo sapiens (Human), UniProt P09619); test: PDGFRβ HTRF Assay; assay type: biochemical; settings: read-out: PDGFR HTRF IC50
Summary of the method: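 HTRF KinEASE-TK readout (665/620 nm ratio) of TK-biotin substrate phosphorylation by His-tagged PDGFRβ kinase domain. Enzyme and inhibitor preincubated 30 min, then ATP/substrate added for 3 h at room temperature before 60 min EDTA quench/detection.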

[2] = molecular target: Tb-labeled inactive PDGFRβ (Homo sapiens (Human), UniProt P09619); test: PDGFRβ LanthaScreen Assay; assay type: binding; settings: read-out: PDGFR Lantha IC50
Chain of Tb-labeled inactive PDGFRβ (P09619 33-1106): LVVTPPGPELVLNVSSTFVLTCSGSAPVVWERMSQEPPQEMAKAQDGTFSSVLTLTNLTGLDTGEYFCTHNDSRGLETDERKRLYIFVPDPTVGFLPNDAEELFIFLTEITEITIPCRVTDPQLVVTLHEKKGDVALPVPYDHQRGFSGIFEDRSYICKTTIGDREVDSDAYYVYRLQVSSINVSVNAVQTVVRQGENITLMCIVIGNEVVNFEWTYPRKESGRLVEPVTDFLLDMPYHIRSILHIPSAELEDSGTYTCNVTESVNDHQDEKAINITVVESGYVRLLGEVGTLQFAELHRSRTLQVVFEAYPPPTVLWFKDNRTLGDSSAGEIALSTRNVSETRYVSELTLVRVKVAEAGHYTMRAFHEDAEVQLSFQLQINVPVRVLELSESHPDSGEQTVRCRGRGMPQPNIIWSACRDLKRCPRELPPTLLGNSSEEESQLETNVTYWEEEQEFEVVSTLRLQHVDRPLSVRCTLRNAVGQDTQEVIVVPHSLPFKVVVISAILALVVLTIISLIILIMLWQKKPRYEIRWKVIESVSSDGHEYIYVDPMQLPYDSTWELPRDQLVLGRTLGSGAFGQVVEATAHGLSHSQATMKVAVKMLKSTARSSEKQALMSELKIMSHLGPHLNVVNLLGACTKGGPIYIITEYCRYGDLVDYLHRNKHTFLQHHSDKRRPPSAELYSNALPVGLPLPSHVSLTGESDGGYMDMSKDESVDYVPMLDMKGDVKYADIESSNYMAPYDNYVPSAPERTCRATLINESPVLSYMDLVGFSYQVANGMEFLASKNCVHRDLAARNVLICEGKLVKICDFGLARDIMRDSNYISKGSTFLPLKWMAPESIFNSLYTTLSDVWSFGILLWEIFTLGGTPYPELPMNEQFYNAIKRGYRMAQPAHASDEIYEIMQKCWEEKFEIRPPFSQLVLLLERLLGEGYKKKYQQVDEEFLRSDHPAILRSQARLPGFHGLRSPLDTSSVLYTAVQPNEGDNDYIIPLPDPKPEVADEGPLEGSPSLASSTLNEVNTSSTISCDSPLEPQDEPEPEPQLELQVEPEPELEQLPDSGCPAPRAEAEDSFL

Chain of His6-TEV-PDGFRβ (557-1016) (P09619 557-1016): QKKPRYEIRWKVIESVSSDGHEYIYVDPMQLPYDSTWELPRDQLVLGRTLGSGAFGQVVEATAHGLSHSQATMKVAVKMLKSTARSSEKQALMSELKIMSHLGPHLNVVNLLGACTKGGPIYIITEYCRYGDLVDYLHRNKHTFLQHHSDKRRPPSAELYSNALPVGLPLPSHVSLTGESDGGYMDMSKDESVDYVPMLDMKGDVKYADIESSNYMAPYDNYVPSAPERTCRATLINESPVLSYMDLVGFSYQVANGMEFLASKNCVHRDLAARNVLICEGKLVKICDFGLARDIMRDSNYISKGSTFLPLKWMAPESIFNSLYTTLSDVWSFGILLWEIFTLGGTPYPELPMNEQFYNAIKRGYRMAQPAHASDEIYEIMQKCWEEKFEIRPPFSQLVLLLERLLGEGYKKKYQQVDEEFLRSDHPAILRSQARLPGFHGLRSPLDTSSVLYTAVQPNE

COCCn1cc(-c2cn3ncc(C(=O)Nc4cc(NC(=O)CN5CCC5C(C)C)cnc4C)c3s2)cn1 (stereo not drawn) [Example 467, N-(5-(2-(2-isopropylazetidin-1-yl)acetamido)-2-methylpyridin-3-yl)-2-(1-(2-methoxyethyl)-1H-pyrazol-4-yl)pyrazolo[5,1-b]thiazole-7-carboxamide]
IC50 [1]: 0.4 nM | IC50 [2]: 3 nM

CCCNCC(=O)Nc1cnc(C)c(NC(=O)c2cnn3cc(-c4cnn5c4CCC5)sc23)c1 [Example 456, 2-(5,6-dihydro-4H-pyrrolo[1,2-b]pyrazol-3-yl)-N-(2-methyl-5-(2-(propylamino)acetamido)pyridin-3-yl)pyrazolo[5,1-b]thiazole-7-carboxamide]
IC50 [1]: 0.4 nM | IC50 [2]: 4.7 nM

Cc1ncc(C(=O)NCCN2CC(C)(C)C2)cc1NC(=O)c1cnn2cc(-c3cnn4c3OCCC4)sc12 [Example 479, 2-(6,7-dihydro-5H-pyrazolo[5,1-b][1,3]oxazin-3-yl)-N-(5-((2-(3,3-dimethylazetidin-1-yl)ethyl)carbamoyl)-2-methylpyridin-3-yl)pyrazolo[5,1-b]thiazole-7-carboxamide]
IC50 [1]: 0.3 nM | IC50 [2]: 2 nM

Cc1ncc(C(=O)NCCN2CCCC2(C)C)cc1NC(=O)c1cnn2cc(-c3cnn4c3OCCC4)sc12 [Example 460, 2-(6,7-dihydro-5H-pyrazolo[5,1-b][1,3]oxazin-3-yl)-N-(5-((2-(2,2-dimethylpyrrolidin-1-yl)ethyl)carbamoyl)-2-methylpyridin-3-yl)pyrazolo[5,1-b]thiazole-7-carboxamide]
IC50 [1]: 0.3 nM | IC50 [2]: 1.6 nM

Cc1ncc(NC(=O)CN2CC(C)(C)C2)cc1NC(=O)c1cnn2cc(-c3nn(C)nc3C)sc12 [Example 445, 2-(2,5-Dimethyl-2H-1,2,3-triazol-4-yl)-N-(5-(2-(3,3-dimethylazetidin-1-yl)acetamido)-2-methylpyridin-3-yl)pyrazolo[5,1-b]thiazole-7-carboxamide]
IC50 [1]: 0.3 nM | IC50 [2]: 2.1 nM

Cc1ncc(NC(=O)CN2CCCC23CCC3)cc1NC(=O)c1cnn2cc(-c3cnc4n3CCOC4)sc12 [Example 418, N-(5-(2-(5-azaspiro[3.4]octan-5-yl)acetamido)-2-methylpyridin-3-yl)-2-(5,6-dihydro-8H-imidazo[2,1-c][1,4]oxazin-3-yl)pyrazolo[5,1-b]thiazole-7-carboxamide]
IC50 [1]: 0.5 nM | IC50 [2]: 2.9 nM

Cc1cc(C(=O)NCCN2CCCC23CCC3)sc1NC(=O)c1cnn2cc(-c3cnn(C)c3)sc12 [Example 35, N-(5-((2-(5-azaspiro[3.4]octan-5-yl)ethyl)carbamoyl)-3-methylthiophen-2-yl)-2-(1-methyl-1H-pyrazol-4-yl)pyrazolo[5,1-b]thiazole-7-carboxamide]
IC50 [1]: 1.6 nM | IC50 [2]: 71.4 nM

Cc1ncc(NC(=O)CC2CNC2)cc1NC(=O)c1cnn2cc(-c3cnn4c3CCC4)sc12 [Example 426, N-(5-(2-(azetidin-3-yl)acetamido)-2-methylpyridin-3-yl)-2-(5,6-dihydro-4H-pyrrolo[1,2-b]pyrazol-3-yl)pyrazolo[5,1-b]thiazole-7-carboxamide]
IC50 [1]: 11.5 nM | IC50 [2]: 482 nM

Cc1ncc(NC(=O)CN2CCC23CCC3)cc1NC(=O)c1cnn2cc(-c3cnn4c3COCC4)sc12 [Example 475, N-(5-(2-(1-azaspiro[3.3]heptan-1-yl)acetamido)-2-methylpyridin-3-yl)-2-(6,7-dihydro-4H-pyrazolo[5,1-c][1,4]oxazin-3-yl)pyrazolo[5,1-b]thiazole-7-carboxamide]
IC50 [1]: 0.2 nM | IC50 [2]: 1.4 nM

Cc1ncc(C(=O)NCC2CCCN2C)cc1NC(=O)c1cnn2cc(-c3cnn4c3CCC4)sc12 (stereo not drawn) [Example 469, 2-(5,6-dihydro-4H-pyrrolo[1,2-b]pyrazol-3-yl)-N-(2-methyl-5-(((1-methylpyrrolidin-2-yl)methyl)carbamoyl)pyridin-3-yl)pyrazolo[5,1-b]thiazole-7-carboxamide]
IC50 [1]: 0.3 nM | IC50 [2]: 5.5 nM

Cc1ncc(C(=O)NCCN2CCCC2(C)C)cc1NC(=O)c1cnn2cc(-c3cnn4c3COCC4)sc12 [Example 450, 2-(6,7-dihydro-4H-pyrazolo[5,1-c][1,4]oxazin-3-yl)-N-(5-((2-(2,2-dimethylpyrrolidin-1-yl)ethyl)carbamoyl)-2-methylpyridin-3-yl)pyrazolo[5,1-b]thiazole-7-carboxamide]
IC50 [1]: 0.4 nM | IC50 [2]: 2.4 nM

Cc1ncc(NC(=O)CN2CCCC2(C)C)cc1NC(=O)c1cnn2cc(-c3cnn(C(C)(C)CO)c3)sc12 [Example 457, N-(5-(2-(2,2-dimethylpyrrolidin-1-yl)acetamido)-2-methylpyridin-3-yl)-2-(1-(1-hydroxy-2-methylpropan-2-yl)-1H-pyrazol-4-yl)pyrazolo[5,1-b]thiazole-7-carboxamide]
IC50 [1]: 0.4 nM | IC50 [2]: 3.4 nM

Cc1ncc(C(=O)NCCN2CC3CCC2CC3)cc1NC(=O)c1cnn2cc(-c3cnn4c3COCC4)sc12 [Example 459, N-(5-((2-(2-azabicyclo[2.2.2]octan-2-yl)ethyl)carbamoyl)-2-methylpyridin-3-yl)-2-(6,7-dihydro-4H-pyrazolo[5,1-c][1,4]oxazin-3-yl)pyrazolo[5,1-b]thiazole-7-carboxamide]
IC50 [1]: 0.3 nM | IC50 [2]: 1.5 nM

Cc1ncc(NC(=O)CN2C[C@@H](C)O[C@H](C)C2)cc1NC(=O)c1cnn2cc(-c3cnn(CCS(C)(=O)=O)c3)sc12 (relative stereo) [Example 432, N-(5-(2-(trans-2,6-dimethylmorpholino)acetamido)-2-methylpyridin-3-yl)-2-(1-(2-(methylsulfonyl)ethyl)-1H-pyrazol-4-yl)pyrazolo[5,1-b]thiazole-7-carboxamide]
IC50 [1]: 1.1 nM | IC50 [2]: 9.2 nM

Cc1ncc(NC(=O)CN2CCC3(CC3)C2)cc1NC(=O)c1cnn2cc(-c3cnn4c3COCC4)sc12 [Example 474, N-(5-(2-(5-azaspiro[2.4]heptan-5-yl)acetamido)-2-methylpyridin-3-yl)-2-(6,7-dihydro-4H-pyrazolo[5,1-c][1,4]oxazin-3-yl)pyrazolo[5,1-b]thiazole-7-carboxamide]
IC50 [1]: 0.2 nM | IC50 [2]: 1.7 nM

Cc1ncc(NC(=O)CN2CC(C)(C)C2)cc1NC(=O)c1cnn2cc(-c3cncnc3)sc12 [Example 429, N-(5-(2-(3,3-dimethylazetidin-1-yl)acetamido)-2-methylpyridin-3-yl)-2-(pyrimidin-5-yl)pyrazolo[5,1-b]thiazole-7-carboxamide]
IC50 [1]: 6.3 nM | IC50 [2]: 185 nM

Cc1ncc(NC(=O)CN2CC3(COC3)C2)cc1NC(=O)c1cnn2cc(-c3cnn4c3OCCC4)sc12 [Example 411, N-(5-(2-(2-oxa-6-azaspiro[3.3]heptan-6-yl)acetamido)-2-methylpyridin-3-yl)-2-(6,7-dihydro-5H-pyrazolo[5,1-b][1,3]oxazin-3-yl)pyrazolo[5,1-b]thiazole-7-carboxamide]
IC50 [1]: 0.5 nM | IC50 [2]: 6.6 nM

Cc1ncc(C(=O)NCCN2CC3CCC2CC3)cc1NC(=O)c1cnn2cc(-c3cnn4c3CCC4)sc12 [Example 480, N-(5-((2-(2-azabicyclo[2.2.2]octan-2-yl)ethyl)carbamoyl)-2-methylpyridin-3-yl)-2-(5,6-dihydro-4H-pyrrolo[1,2-b]pyrazol-3-yl)pyrazolo[5,1-b]thiazole-7-carboxamide]
IC50 [1]: 0.3 nM | IC50 [2]: 2.5 nM

Cc1ncc(NC(=O)CN2CCCCC2)cc1NC(=O)c1cnn2cc(-c3cnn4c3OCCC4)sc12 [Example 419, 2-(6,7-dihydro-5H-pyrazolo[5,1-b][1,3]oxazin-3-yl)-N-(2-methyl-5-(2-(piperidin-1-yl)acetamido)pyridin-3-yl)pyrazolo[5,1-b]thiazole-7-carboxamide]
IC50 [1]: 0.3 nM | IC50 [2]: 2.8 nM

COCCn1cc(-c2cn3ncc(C(=O)Nc4cc(NC(=O)CCC5CCCN5C)cnc4C)c3s2)cn1 (stereo not drawn) [Example 462, 2-(1-(2-methoxyethyl)-1H-pyrazol-4-yl)-N-(2-methyl-5-(3-(1-methylpyrrolidin-2-yl)propanamido)pyridin-3-yl)pyrazolo[5,1-b]thiazole-7-carboxamide]
IC50 [1]: 0.7 nM | IC50 [2]: 15.3 nM

Cc1ncc(NC(=O)CN2CCC[C@@H]2C)cc1NC(=O)c1cnn2cc(-c3cnn4c3COCC4)sc12 [Example 473, (S)-2-(6,7-dihydro-4H-pyrazolo[5,1-c][1,4]oxazin-3-yl)-N-(2-methyl-5-(2-(2-methylpyrrolidin-1-yl)acetamido)pyridin-3-yl)pyrazolo[5,1-b]thiazole-7-carboxamide]
IC50 [1]: 0.4 nM | IC50 [2]: 4.8 nM

Cc1ncc(NC(=O)CN2CC(C)(C)C2)cc1NC(=O)c1cnn2cc(-c3ccnnc3C)sc12 [Example 410, N-(5-(2-(3,3-dimethylazetidin-1-yl)acetamido)-2-methylpyridin-3-yl)-2-(3-methylpyridazin-4-yl)pyrazolo[5,1-b]thiazole-7-carboxamide]
IC50 [1]: 6.2 nM | IC50 [2]: 190 nM

Cc1ncc(NC(=O)CN2CC3(CCCCO3)C2)cc1NC(=O)c1cnn2cc(-c3cnn4c3OCCC4)sc12 [Example 423, N-(5-(2-(5-oxa-2-azaspiro[3.5]nonan-2-yl)acetamido)-2-methylpyridin-3-yl)-2-(6,7-dihydro-5H-pyrazolo[5,1-b][1,3]oxazin-3-yl)pyrazolo[5,1-b]thiazole-7-carboxamide]
IC50 [1]: 0.4 nM | IC50 [2]: 3.7 nM

Cc1ncc(NC(=O)CNC2CCCC2)cc1NC(=O)c1cnn2cc(-c3cnn4c3CCC4)sc12 [Example 422, N-(5-(2-(cyclopentylamino)acetamido)-2-methylpyridin-3-yl)-2-(5,6-dihydro-4H-pyrrolo[1,2-b]pyrazol-3-yl)pyrazolo[5,1-b]thiazole-7-carboxamide]
IC50 [1]: 0.2 nM | IC50 [2]: 1.1 nM
